Test results as given in ChEMBL document CHEMBL5726927, “Heterocyclic derivatives as modulators of kinase activity” (2019).

Assay: P70S6K Enzyme Assay: P70S6K inhibitor compounds were diluted and plated in 96 well plates. A reaction mixture including the following components was then added to the compound plate to initiate the enzyme reaction; P70S6K (3 nM, T412E mutant, Millipore) was mixed with 24 μM ATP in an assay buffer containing 100 mM Hepes (pH 7.5), 5 mM MgCl2, 1 mM DTT, 0.015% Brij and 1 μM of the substrate peptide FITC-AHA-AKRRRLSSLRA-OH (derived from the S6 ribosomal protein sequence, FITC=fluorescein isothiocyanate, AHA=6-aminohexanoic acid). The reaction was incubated for 90 min at 25° C., before the addition of 10 mM EDTA to stop the reaction. The proportion of substrate and product (phosphorylated) peptide was analysed on a Caliper Life Sciences Lab Chip 3000, using a pressure of −1.4 psi, and upstream and downstream voltages of −3000 and −700 respectively. Product peaks were resolved before substrate peaks on the resulting chromatograms.

Structure (SMILES): O=C1CNc2ncnc(N3CCN(C(CN4CCCC4)c4ccc(F)c(Cl)c4)CC3)c2N1 (stereo unspecified)
- IC50: > 1 µM
